In patent US5677318A, “Diphenyl-1,2-3-thiadiazoles as anti-inflammatory agents” (Merck Frosst Canada, Inc., priority 1996, dated 1997) one finds IC50 and ED50 data, which are given here for 3 compounds.

One test concerns the target T1, COX-2 (Homo sapiens, UniProt P35354).
T1 construct: incubation of human whole blood with LPS which induces COX-2; endogenous in cells; host or cells: LPS-stimulated fresh human whole blood (blood cells not specified)
T1 sequence (P35354 18-604): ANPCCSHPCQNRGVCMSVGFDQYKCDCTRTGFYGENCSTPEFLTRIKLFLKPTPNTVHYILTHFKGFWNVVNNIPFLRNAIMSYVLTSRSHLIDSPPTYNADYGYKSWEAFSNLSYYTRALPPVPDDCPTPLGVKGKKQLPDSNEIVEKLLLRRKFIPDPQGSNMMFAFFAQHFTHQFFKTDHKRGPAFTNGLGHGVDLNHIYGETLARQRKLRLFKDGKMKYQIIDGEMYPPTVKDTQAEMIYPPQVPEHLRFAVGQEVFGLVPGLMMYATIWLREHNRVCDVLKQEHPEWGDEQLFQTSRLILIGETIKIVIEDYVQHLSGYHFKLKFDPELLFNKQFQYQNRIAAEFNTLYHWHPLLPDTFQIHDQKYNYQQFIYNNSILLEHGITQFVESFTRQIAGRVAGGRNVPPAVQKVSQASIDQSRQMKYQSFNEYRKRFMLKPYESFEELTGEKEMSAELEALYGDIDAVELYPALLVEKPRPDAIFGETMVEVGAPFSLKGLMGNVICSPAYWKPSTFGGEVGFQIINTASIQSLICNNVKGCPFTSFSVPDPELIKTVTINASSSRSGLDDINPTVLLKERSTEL
Briefly: Human whole blood assay, COX-2 (LPS-induced PGE2 production). As to conditions: 24 hours at 37° C. The test is classed as cell-based. The text has this:
(§1) As well, platelets in whole blood contain a large amount of the COX-1 enzyme. Immediately following blood clotting, platelets are activated through a thrombin-mediated mechanism. This reaction results in the production of thromboxane B2 (TxB2) via activation of COX-1.
Fresh blood was collected in heparinized tubes by venipuncture from both male and female volunteers. The subjects had no apparent inflammatory conditions and had not taken any NSAIDs for at least 7 days prior to blood collection. Plasma was immediately obtained from a 2 mL blood aliquot to use as blank (basal levels of PGE2).
(§2) In the assay, inhibition is determined by measuring the amount of prostaglandin E2 (PGE2) synthesized in the presence of arachidonic acid, COX-1 or COX-2 and a putative inhibitor.

The next test addresses T2, COX-1 (Homo sapiens, UniProt P23219).
T2 construct: platelets in whole blood contain a large amount of the COX-1 enzyme; endogenous in cells; host or cells: platelets in fresh human whole blood
The test can be described thus: Human whole blood assay, COX-1 (clotting-induced TxB2 production). In kind it is cell-based. The settings on record: 1 hour at 37° C. The method, then: as §1
Aliquots of 500 μL were immediately transferred to siliconized microcentrifuge tubes preloaded with 2 μL of either DMSO or a test compound at final concentrations varying from 10 nM to 30 μM.
as §2

The next test relates to rat paw edema. Briefly: Rat paw edema assay (carrageenan). In kind it is in vivo, Male Sprague-Dawley rats. The settings on record: po, 1 hr before subplantar carrageenan, paw volume at 3 hr, read-out: ED50 (edema inhibition in rat paw). How it is done:
Male Sprague-Dawley rats (150-200 g) were fasted overnight and were given, po, either vehicle (1% methocel or 5% Tween 80), or a test compound. One hr later, a line was drawn using a permanent marker at the level above the ankle in one hind paw to define the area of the paw to be monitored. The paw volume (V0) was measured using a plethysmometer (Ugo-Basile, Italy) based on the principle of water displacement. The animals were then injected subplantarly with 50 μl of 1% carrageenan solution in saline (FMC Corp, Maine) into the paw using an insulin syringe with a 25-gauge needle (i.e., 500 μg carrageenan per paw). Three hr later, the paw volume (V3) was measured and the increases in paw volume (V3 -V0) were calculated. The animals were sacrificed by CO2 asphyxiation and the absence or presence of stomach lesions scored. Data were compared with the vehicle-control values and percent inhibition calculated. ED50 values were used for comparison. All treatment groups were coded to eliminate observer bias.

T2 sequence (P23219 24-599): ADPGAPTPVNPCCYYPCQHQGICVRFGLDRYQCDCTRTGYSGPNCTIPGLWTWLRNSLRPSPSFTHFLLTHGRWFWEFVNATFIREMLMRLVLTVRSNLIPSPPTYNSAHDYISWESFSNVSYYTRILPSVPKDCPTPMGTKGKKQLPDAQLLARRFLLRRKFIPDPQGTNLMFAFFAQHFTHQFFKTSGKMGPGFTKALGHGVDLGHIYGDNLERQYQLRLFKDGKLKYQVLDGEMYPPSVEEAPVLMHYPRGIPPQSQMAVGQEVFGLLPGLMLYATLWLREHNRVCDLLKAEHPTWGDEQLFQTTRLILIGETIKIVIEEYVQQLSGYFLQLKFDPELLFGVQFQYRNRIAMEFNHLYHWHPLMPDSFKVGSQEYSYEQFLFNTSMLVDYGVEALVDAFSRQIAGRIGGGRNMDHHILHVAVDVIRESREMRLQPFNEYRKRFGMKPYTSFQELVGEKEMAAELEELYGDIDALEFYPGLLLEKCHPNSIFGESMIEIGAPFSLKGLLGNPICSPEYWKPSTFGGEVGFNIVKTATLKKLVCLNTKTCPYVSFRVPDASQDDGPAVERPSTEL

Turning to `CS(=O)(=O)c1ccc(-c2snnc2-c2cccc(F)c2)cc1` [Example 3], the concentration for half-maximal inhibition (IC50) at COX-2 is 1.3 µM; against COX-1, 63 µM.

With `CS(=O)(=O)c1ccc(-c2snnc2-c2ccc(F)cc2)cc1` [Example 2], the ED50 with rat paw edema is 0.5 mg/kg. Moreover, the 50% inhibitory concentration (IC50) on COX-2 worked out at 2.8 µM; at COX-1, 20 µM.

On to `COc1ccc2c(c1)c(CC(=O)O)c(C)n2C(=O)c1ccc(Cl)cc1` [Indomethacin, indomethacin, reference compound], for which, in the test on rat paw edema, the median effective dose (ED50) was 2 mg/kg.
